From patent US7417156B2, “Orally active, antimalarial, anticancer, artemisinin-derived trioxane dimers” (Johns Hopkins University, priority 2002, dated 2008)
Where two headings read alike, the source gives them in different places.

Tests used:
[1] = system: SNB-19; assay: NCI 60 cell line panel screen (SRB); assay type: cell-based, human; details: for Log10GI50: CNS Cancer, SNB-19; for Log10LC50 / Log10TGI50: SNB-19 (CNS Cancer); for Log10LC50: LC50: PG=−50; for Log10TGI50: TGI: PG=0
[2] = system: CCRF-CEM; assay: NCI 60 cell line panel screen (SRB); assay type: cell-based, human; details: for Log10LC50 / Log10TGI50: CCRF-CEM (Leukemia); for Log10LC50: LC50: PG=−50; for Log10TGI50: TGI: PG=0
[3] = system: UO-31; assay: NCI 60 cell line panel screen (SRB); assay type: cell-based, human; details: for Log10GI50: Renal Cancer, UO-31
[4] = system: SK-MEL-2; assay: NCI 60 cell line panel screen (SRB); assay type: cell-based, human; details: for Log10GI50: Melanoma, SK-MEL-2; for Log10LC50: SK-MEL2 (Melanoma), LC50: PG=−50
[5] = system: PC-3; assay: NCI 60 cell line panel screen (SRB); assay type: cell-based, human; details: for Log10LC50 / Log10TGI50: PC-3 (Prostate Cancer); for Log10LC50: LC50: PG=−50; for Log10TGI50: TGI: PG=0; for Log10GI50: Prostate Cancer, PC-3
[6] = system: U251; assay: NCI 60 cell line panel screen (SRB); assay type: cell-based, human; details: for Log10GI50: CNS Cancer, U251; for Log10LC50 / Log10TGI50: U251 (CNS Cancer); for Log10LC50: LC50: PG=−50; for Log10TGI50: TGI: PG=0
[7] = system: NCI-H23; assay: NCI 60 cell line panel screen (SRB); assay type: cell-based, human
[8] = system: NCI-H322M; assay type: cell-based; details: for Log10LC50 / Log10TGI50: NCI-H322M (Non-Small Cell Lung Cancer); for Log10LC50: LC50: PG=−50; for Log10TGI50: TGI: PG=0; for Log10GI50: Non-Small Cell Lung Cancer, NCI-H322M
[9] = system: TK-10; assay: NCI 60 cell line panel screen (SRB); assay type: cell-based, human; details: for Log10GI50: Renal Cancer, TK-10
[10] = system: MOLT-4; details: for Log10GI50: Leukemia, MOLT-4; for Log10LC50 / Log10TGI50: MOLT-4 (Leukemia); for Log10LC50: LC50: PG=−50; for Log10TGI50: TGI: PG=0
Method: Growth Inhibition. […] The screening assay is performed on 96-well microtitre plates. Relatively high initial inoculation densities are used, in order to permit measurement of “time-zero” values and to enhance the screen's ability to detect and provide some differentiation between growth inhibition and cytotoxic response parameters. […] The inoculated microtitre plates are pre-incubated for 24 hours at 37° C. prior to drug additions. The five drug dilutions tested routinely range from 10^−4 to 10^−8 molar. Higher or lower concentration ranges may be selected on a non-routine basis if appropriate solubility and/or prior biological information or other screening data so dictate. Duplicate wells are prepared for all concentrations, (concentration is often denoted by placing brackets around a number); “time-zero” and “no drug” controls are also provided for each test. The minimum amount of compound required for a one-time evaluation in the routine screen can be calculated from the knowledge that each test requires a total of approximately 40 ml (0.04 liter) of cell culture medium containing the highest desired drug concentration. […] After a 48 hour incubation (37° C.) with the test compound, the cells are fixed in situ to the bottoms of the microtitre wells by addition of 50 μl of either 50% trichloroacetic acid (for adherent cell lines) or 80% trichloroacetic acid (for settled cell suspension lines), followed by incubation for 60 minutes at 4° C. The cellular protein in each well is assayed using a sulforhodamine B (SRB) stain procedure. Briefly, after discarding the supernatants, the microtitre plates are washed 5 times with deionized water and air-dried. […] Unbound SRB is removed by washing 5 times with 1% acetic acid. […] SRB is a bright pink anionic dye which, in dilute acetic acid, binds electrostatically to the basic amino acids of TCA-fixed cells. Cryopreserved master stocks of all the lines are maintained, and cultures used for screening are replaced from the master stock after no more than twenty passages in the screening laboratory. The cell line panel consists of 60 lines, organized into nine, disease-related subpanels including leukemia, non-small-cell lung cancer, colon, CNS, melanoma, ovarian, renal, prostate and breast cancers.
At this value the increase from time tzero, in the number or mass of cells in the test well is only 50% as much as the corresponding increase in the control well during this period of the experiment, see Table III. A drug effect of this intensity is interpreted as primary growth inhibition.
At this value the number or mass of cells in the well at the end of the experiment equals the number or mass of cells in the well at time tzero, see Table IV. A drug effect of this intensity is regarded as cytostasis.
At this value, the number or mass of cells in the test well at the end of the experiment is half that at time tzero, see Table V. This is interpreted as cytotoxicity.
Dose response curves, shown in the above mentioned Figures, are obtained by exposing various cancer cell lines to compounds having a known concentration ([log10M]), as discussed in detail above, and then plotting the percentage growth of each cell line for each concentration. […] Percentage growth is determined by dividing the number or mass of cells in the test well by the number or mass of cells in a control well. […] As discussed previously, the five drug dilutions routinely tested range from 10^−4 to […].

[11] = system: BT-549; assay: NCI 60 cell line panel screen (SRB); assay type: cell-based, human; details: for Log10LC50 / Log10TGI50: BT-549 (Breast Cancer); for Log10LC50: LC50: PG=−50; for Log10TGI50: TGI: PG=0; for Log10GI50: Breast Cancer, BT-549
[12] = system: HOP-92; assay: NCI 60 cell line panel screen (SRB); assay type: cell-based, human
[13] = system: SF-539; assay: NCI 60 cell line panel screen (SRB); assay type: cell-based, human; details: for Log10GI50: CNS Cancer, SF-539; for Log10LC50: LC50: PG=−50
[14] = system: HL-60(TB); assay: NCI 60 cell line panel screen (SRB); assay type: cell-based, human; details: for Log10LC50 / Log10TGI50: HL-60(TB) (Leukemia); for Log10LC50: LC50: PG=−50; for Log10TGI50: TGI: PG=0; for Log10GI50: Leukemia, HL-60(TB)
[15] = system: RXF 393; assay: NCI 60 cell line panel screen (SRB); assay type: cell-based, human; details: for Log10LC50 / Log10TGI50: RXF 393 (Renal Cancer); for Log10LC50: LC50: PG=−50; for Log10TGI50: TGI: PG=0; for Log10GI50: Renal Cancer, RXF 393
[16] = system: IGROVI; assay: NCI 60 cell line panel screen (SRB); assay type: cell-based, human; details: for Log10LC50 / Log10TGI50: IGROVI (Ovarian Cancer); for Log10LC50: LC50: PG=−50; for Log10TGI50: TGI: PG=0; for Log10GI50: Ovarian Cancer, IGROVI
[17] = system: OVCAR-5; assay: NCI 60 cell line panel screen (SRB); assay type: cell-based, human; details: for Log10LC50 / Log10TGI50: OVCAR-5 (Ovarian Cancer); for Log10LC50: LC50: PG=−50; for Log10TGI50: TGI: PG=0; for Log10GI50: Ovarian Cancer, OVCAR-5

SMILES: CC1CCC2C(C)C(CC(CO)CC3OC4OC5(C)CCC6C(C)CCC(C3C)C46OO5)OC3OC4(C)CCC1C32OO4 (stereo not shown) [Compound 4, bis-trioxane primary alcohol]
- Log10GI50 [1]: −4.88
- Log10LC50 [1]: −4.13 log10M
- Log10TGI50 [1]: −4.50 log10M
- Log10LC50 [2]: >−4.00 log10M
- Log10TGI50 [2]: −4.66 log10M
- Log10GI50 [3]: −7.46
- Log10LC50 ([3]; UO-31 (Renal Cancer), LC50: PG=−50): −5.14 log10M
- Log10TGI50 ([3]; UO-31 (Renal Cancer), TGI: PG=0): −5.77 log10M
- Log10GI50 [4]: −7.33
- Log10LC50 [4]: −4.46 log10M
- Log10TGI50 ([4]; SK-MEL-2 (Melanoma), TGI: PG=0): −4.92 log10M
- Log10LC50 [5]: −4.34 log10M
- Log10TGI50 [5]: −4.89 log10M
- Log10GI50 [5]: <−8.00
- Log10GI50 [6]: −7.27
- Log10LC50 [6]: >−4.00 log10M
- Log10TGI50 [6]: −4.47 log10M
- Log10LC50 ([7]; NCI-H23 (Non-Small Cell Lung Cancer), LC50: PG=−50): −4.49 log10M
- Log10GI50 ([7]; Non-Small Cell Lung Cancer, NCI-H23): −7.84
- Log10LC50 [8]: −4.29 log10M
- Log10TGI50 [8]: −4.63 log10M
- Log10GI50 [8]: −4.97
- Log10GI50 [9]: −6.60
- Log10LC50 ([9]; TK-10 (Renal Cancer), LC50: PG=−50): −4.38 log10M
- Log10TGI50 ([9]; TK-10 (Renal Cancer), TGI: PG=0): −4.81 log10M
- concentration for cytotoxicity (percentage growth −50) [10]: greater than 10^−4 M
- Log10GI50 [10]: −7.92
- Log10LC50 [10]: >−4.00 log10M
- Log10TGI50 [10]: >−4.00 log10M
- Log10LC50 [11]: −4.31 log10M
- Log10TGI50 [11]: −4.73 log10M
- Log10GI50 [11]: −7.11
- Log10LC50 ([12]; HOP-92 (Non-Small Cell Lung Cancer), LC50: PG=−50): −4.22 log10M
- Log10TGI50 ([12]; HOP-92 (Non-Small Cell Lung Cancer), TGI: PG=0): −4.65 log10M
- Log10GI50 ([12]; Non-Small Cell Lung Cancer, HOP-92): −6.37
- Log10GI50 [13]: −7.05
- Log10LC50 ([13]; SF-539 (CNS Cancer)): −4.34 log10M
- Log10TGI50 ([13]; SF-539 (CNS Cancer), TGI: PG=0): −4.72 log10M
- Log10LC50 [14]: −4.13 log10M
- Log10TGI50 [14]: −4.88 log10M
- Log10GI50 [14]: −7.78
- Log10LC50 [15]: −4.01 log10M
- Log10TGI50 [15]: −4.41 log10M
- Log10GI50 [15]: −4.80
- Log10LC50 [16]: −4.32 log10M
- Log10TGI50 [16]: −4.68 log10M
- Log10GI50 [16]: −5.36
- Log10LC50 [17]: −4.54 log10M
- Log10TGI50 [17]: −6.42 log10M
- Log10GI50 [17]: −7.79

SMILES: CC(=O)O[C@H]1C(=O)[C@@]2(C)[C@H]([C@H](OC(=O)c3ccccc3)[C@]3(O)C[C@H](OC(=O)[C@H](O)[C@@H](NC(=O)c4ccccc4)c4ccccc4)C(C)=C1C3(C)C)[C@]1(OC(C)=O)CO[C@@H]1C[C@@H]2O [Paclitaxel, paclitaxel, reference compound]
- Log10GI50 [1]: −8.98
- Log10LC50 [1]: >−4.00 log10M
- Log10TGI50 [1]: >−4.00 log10M
- Log10LC50 [2]: >−4.00 log10M
- Log10TGI50 [2]: >−4.00 log10M
- Log10GI50 ([2]; Leukemia, CCRF-CEM): −11.61
- Log10GI50 [3]: −6.09
- Log10GI50 [4]: −9.53
- Log10LC50 [4]: >−4.00 log10M
- Log10LC50 [5]: >−4.00 log10M
- Log10TGI50 [5]: >−4.00 log10M
- Log10GI50 [5]: −10.85
- Log10GI50 [6]: −11.29
- Log10LC50 [6]: −4.15 log10M
- Log10TGI50 [6]: −4.32 log10M
- Log10LC50 [8]: >−4.00 log10M
- Log10TGI50 [8]: −4.46 log10M
- Log10GI50 [8]: −10.12
- Log10GI50 [9]: −7.89
- Log10GI50 [10]: −11.07
- Log10LC50 [10]: >−4.00 log10M
- Log10TGI50 [10]: >−4.00 log10M
- drug concentration for primary growth inhibition (percentage growth +50) ([10]; MOLT-4, from dose response curves FIGS. 7a-7i): 10^−11 molar
- concentration for cytotoxicity (percentage growth −50) ([10]; human, 48 h): greater than 10^−4 M
- Log10LC50 [11]: >−4.00 log10M
- Log10TGI50 [11]: −6.32 log10M
- Log10GI50 [11]: −9.31
- Log10GI50 [13]: −11.09
- Log10LC50 ([13]; SF-539 (CNS Cancer)): >−4.00 log10M
- Log10LC50 [14]: >−4.53 log10M
- Log10TGI50 [14]: −4.53 log10M
- Log10GI50 [14]: −11.57
- Log10LC50 [15]: >−4.00 log10M
- Log10TGI50 [15]: >−4.00 log10M
- Log10GI50 [15]: −8.32
- Log10LC50 [16]: >−4.00 log10M
- Log10TGI50 [16]: −4.19 log10M
- Log10GI50 [16]: −8.61
- Log10LC50 [17]: >−4.00 log10M
- Log10TGI50 [17]: −4.92 log10M
- Log10GI50 [17]: −9.38
